From PubChem BioAssay (NCI)
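Grown in 96-well plates, cells were treated for 48 hours with each compound at five concentrations. Insufficient inhibition: endpoint recorded as highest concentration tested. TGI marks complete inhibition of growth.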

Legend:
Assay in all cases: inhibition of tumour cell growth, NCI panel, 48 h
SF-539 CNS = test system: SF-539 CNS
EKVX NSCLC = test system: EKVX NSCLC
OVCAR-5 ovarian = test system: OVCAR-5 ovarian
IGROV1 ovarian = test system: IGROV1 ovarian
SK-OV-3 ovarian = test system: SK-OV-3 ovarian
CCRF-CEM leukemia = test system: CCRF-CEM leukemia
HT29 colon = test system: HT29 colon
SK-MEL-2 melanoma = test system: SK-MEL-2 melanoma
OVCAR-4 ovarian = test system: OVCAR-4 ovarian
M14 melanoma = test system: M14 melanoma
786-0 renal = test system: 786-0 renal
NCI-H23 lung = test system: NCI-H23 lung
HOP-62 NSCLC = test system: HOP-62 NSCLC
HCT-116 colon = test system: HCT-116 colon
TK-10 renal = test system: TK-10 renal
HCT-15 colon = test system: HCT-15 colon
SNB-75 CNS = test system: SNB-75 CNS
SK-MEL-28 melanoma = test system: SK-MEL-28 melanoma
SNB-78 CNS = test system: SNB-78 CNS
DLD-1 colon = test system: DLD-1 colon
LOX IMVI melanoma = test system: LOX IMVI melanoma
A549 NSCLC = test system: A549 NSCLC
KM12 colon = test system: KM12 colon
DMS 273 small cell lung = test system: DMS 273 small cell lung
OVCAR-3 ovarian = test system: OVCAR-3 ovarian
COLO 205 colon = test system: COLO 205 colon
SF-268 CNS = test system: SF-268 CNS
NCI-H460 lung = test system: NCI-H460 lung
OVCAR-8 ovarian = test system: OVCAR-8 ovarian
U251 CNS = test system: U251 CNS
SR leukemia = test system: SR leukemia
NCI-H226 lung = test system: NCI-H226 lung
HL-60(TB) leukemia = test system: HL-60(TB) leukemia
LXFL 529 NSCLC = test system: LXFL 529 NSCLC
UACC-257 melanoma = test system: UACC-257 melanoma
UO-31 renal = test system: UO-31 renal
XF 498 CNS = test system: XF 498 CNS
HOP-92 NSCLC = test system: HOP-92 NSCLC
MOLT-4 leukemia = test system: MOLT-4 leukemia
M19-MEL melanoma = test system: M19-MEL melanoma
K-562 leukemia = test system: K-562 leukemia
KM20L2 colon = test system: KM20L2 colon
HOP-18 NSCLC = test system: HOP-18 NSCLC
SN12C renal = test system: SN12C renal
SF-295 CNS = test system: SF-295 CNS
HCC-2998 colon = test system: HCC-2998 colon
ACHN renal = test system: ACHN renal
NCI-H522 lung = test system: NCI-H522 lung
UACC-62 melanoma = test system: UACC-62 melanoma
SNB-19 CNS = test system: SNB-19 CNS
RXF 393 renal = test system: RXF 393 renal
RXF-631 renal = test system: RXF-631 renal
MALME-3M melanoma = test system: MALME-3M melanoma
CAKI-1 renal = test system: CAKI-1 renal
SW-620 colon = test system: SW-620 colon
DMS 114 small cell lung = test system: DMS 114 small cell lung
A498 renal = test system: A498 renal
SK-MEL-5 melanoma = test system: SK-MEL-5 melanoma
RPMI-8226 leukemia = test system: RPMI-8226 leukemia

Which results are given for C/C=C1/C(=Cc2[nH]c(C=c3[nH]/c(=C/C4=NC(=O)C(CC)=C4C)c(C)c3CCC(=O)O)c(CCC(=O)O)c2C)NC(=O)C1C (centres undefined)?
TGI (SF-539 CNS): 23 µM; TGI (EKVX NSCLC): > 50 µM; TGI (OVCAR-5 ovarian): 27.4 µM; TGI (IGROV1 ovarian): > 50 µM; TGI (SK-OV-3 ovarian): > 50 µM; TGI (CCRF-CEM leukemia): > 50 µM; TGI (HT29 colon): 49 µM; TGI (SK-MEL-2 melanoma): 20.3 µM; TGI (OVCAR-4 ovarian): > 50 µM; TGI (M14 melanoma): 6.11 µM; TGI (786-0 renal): > 50 µM; TGI (NCI-H23 lung): > 50 µM; TGI (HOP-62 NSCLC): 15.9 µM; TGI (HCT-116 colon): > 50 µM; TGI (TK-10 renal): > 50 µM; TGI (HCT-15 colon): > 50 µM; TGI (SNB-75 CNS): > 50 µM; TGI (SK-MEL-28 melanoma): > 50 µM; TGI (SNB-78 CNS): > 50 µM; TGI (DLD-1 colon): > 50 µM; TGI (LOX IMVI melanoma): 2610 nM; TGI (A549 NSCLC): 27 µM; TGI (KM12 colon): > 50 µM; TGI (DMS 273 small cell lung): 37.1 µM; TGI (OVCAR-3 ovarian): > 50 µM; TGI (COLO 205 colon): > 50 µM; TGI (SF-268 CNS): > 50 µM; TGI (NCI-H460 lung): 40.6 µM; TGI (OVCAR-8 ovarian): 5 µM; TGI (U251 CNS): > 50 µM; TGI (SR leukemia): > 50 µM; TGI (NCI-H226 lung): 10.8 µM; TGI (HL-60(TB) leukemia): > 50 µM; TGI (LXFL 529 NSCLC): > 50 µM; TGI (UACC-257 melanoma): 24.9 µM; TGI (UO-31 renal): 20.1 µM; TGI (XF 498 CNS): 17.5 µM; TGI (HOP-92 NSCLC): 15.9 µM; TGI (MOLT-4 leukemia): 37.2 µM; TGI (M19-MEL melanoma): 41.6 µM; TGI (K-562 leukemia): > 50 µM; TGI (KM20L2 colon): > 50 µM; TGI (HOP-18 NSCLC): > 50 µM; TGI (SN12C renal): > 50 µM; TGI (SF-295 CNS): 18.5 µM; TGI (HCC-2998 colon): > 50 µM; TGI (ACHN renal): > 50 µM; TGI (NCI-H522 lung): 39.7 µM; TGI (UACC-62 melanoma): 20.3 µM; TGI (SNB-19 CNS): > 50 µM; TGI (RXF 393 renal): > 50 µM; TGI (RXF-631 renal): > 50 µM; TGI (MALME-3M melanoma): 31.9 µM; TGI (CAKI-1 renal): > 50 µM; TGI (SW-620 colon): > 50 µM; TGI (DMS 114 small cell lung): > 50 µM

How did the TGI (SF-539 CNS) turn out when N#CC1=C(c2ccccc2)OC2(N)OC(c3ccccc3)=C(C#N)C12C#N (centres undefined) was run?
Its TGI is > 100 µM.

And the TGI (EKVX NSCLC)?
The TGI was > 100 µM.

And the TGI (OVCAR-5 ovarian)?
Its TGI is > 100 µM.

And the TGI (IGROV1 ovarian)?
Its TGI is > 100 µM.

And the TGI (SK-OV-3 ovarian)?
Its TGI is > 100 µM.

What about the TGI (CCRF-CEM leukemia) of the same molecule?
The TGI was > 100 µM.

And the TGI (HT29 colon)?
The TGI was > 100 µM.

What about the TGI (A498 renal) of the same molecule?
The TGI was > 100 µM.

What about the TGI (SK-MEL-2 melanoma) of the same molecule?
The TGI was > 100 µM.

What about the TGI (OVCAR-4 ovarian) of the same molecule?
Its TGI is > 100 µM.

And the TGI (M14 melanoma)?
Its TGI is > 100 µM.

What about the TGI (786-0 renal) of the same molecule?
Its TGI is > 100 µM.

What about the TGI (NCI-H23 lung) of the same molecule?
The TGI was > 100 µM.

And the TGI (SK-MEL-5 melanoma)?
The TGI was > 100 µM.

What about the TGI (HOP-62 NSCLC) of the same molecule?
Its TGI is > 100 µM.

And the TGI (TK-10 renal)?
The TGI was > 100 µM.

What about the TGI (HCT-15 colon) of the same molecule?
The TGI was > 100 µM.

What about the TGI (SNB-75 CNS) of the same molecule?
The TGI was > 100 µM.

And the TGI (SK-MEL-28 melanoma)?
Its TGI is > 100 µM.

And the TGI (SNB-78 CNS)?
The TGI was > 100 µM.

What about the TGI (DLD-1 colon) of the same molecule?
Its TGI is > 100 µM.

What about the TGI (LOX IMVI melanoma) of the same molecule?
Its TGI is > 100000 nM.

And the TGI (A549 NSCLC)?
Its TGI is > 100 µM.

And the TGI (KM12 colon)?
The TGI was > 100 µM.

What about the TGI (DMS 273 small cell lung) of the same molecule?
Its TGI is > 100 µM.

What about the TGI (OVCAR-3 ovarian) of the same molecule?
The TGI was > 100 µM.

And the TGI (COLO 205 colon)?
Its TGI is > 100 µM.

And the TGI (SF-268 CNS)?
The TGI was > 100 µM.

What about the TGI (NCI-H460 lung) of the same molecule?
Its TGI is > 100 µM.

And the TGI (OVCAR-8 ovarian)?
Its TGI is > 100 µM.

And the TGI (U251 CNS)?
The TGI was > 100 µM.

What about the TGI (RPMI-8226 leukemia) of the same molecule?
Its TGI is > 100 µM.

And the TGI (LXFL 529 NSCLC)?
The TGI was > 100 µM.

What about the TGI (UACC-257 melanoma) of the same molecule?
Its TGI is > 100 µM.

And the TGI (UO-31 renal)?
Its TGI is > 100 µM.

And the TGI (XF 498 CNS)?
Its TGI is > 100 µM.

And the TGI (MOLT-4 leukemia)?
The TGI was > 100 µM.

What about the TGI (M19-MEL melanoma) of the same molecule?
The TGI was > 100 µM.

What about the TGI (K-562 leukemia) of the same molecule?
The TGI was > 100 µM.

What about the TGI (KM20L2 colon) of the same molecule?
Its TGI is > 100 µM.

And the TGI (HOP-18 NSCLC)?
The TGI was 75.1 µM.

What about the TGI (SN12C renal) of the same molecule?
The TGI was > 100 µM.

And the TGI (SF-295 CNS)?
Its TGI is > 100 µM.

And the TGI (HCC-2998 colon)?
Its TGI is > 100 µM.

What about the TGI (ACHN renal) of the same molecule?
The TGI was > 100 µM.

And the TGI (UACC-62 melanoma)?
The TGI was > 100 µM.

What about the TGI (SNB-19 CNS) of the same molecule?
Its TGI is > 100 µM.

What about the TGI (RXF 393 renal) of the same molecule?
The TGI was > 100 µM.

What about the TGI (RXF-631 renal) of the same molecule?
Its TGI is > 100 µM.

What about the TGI (MALME-3M melanoma) of the same molecule?
Its TGI is > 100 µM.

What about the TGI (CAKI-1 renal) of the same molecule?
Its TGI is > 100 µM.

What about the TGI (SW-620 colon) of the same molecule?
Its TGI is > 100 µM.

What about the TGI (DMS 114 small cell lung) of the same molecule?
The TGI was > 100 µM.
